# Assay results published in patent US4382937A, “Naphthyridine derivatives and their use as anti-bacterials” (Dainippon Pharmaceutical Co., Ltd., priority 1981, dated 1983).
# Legend:
# [1] = system: Pseudomonas aeruginosa No. 12; test: In vivo therapeutic efficacy against systemic infections in mice; design: species or system mice (ddY); settings: 168 h; systemic infection, Pseudomonas aeruginosa No. 12, male mice, po, twice (about 5 minutes and 6 hours after infection), 7 days, Behrens-Kaerber; read-out: median effective dose (ED50)
# Method: (§1) Compounds 1 and A were each suspended in a 0.2% aqueous solution of sodium carboxymethyl cellulose. Each of the solutions was orally administered to mice infected with each of the test organisms under the conditions described below, and the median effective doses (ED50) obtained are shown in Table II. Male mice (ddY) weighing about 20 g (2) Pseudomonas aeruginosa No. 12: Intraperitoneal infection with about 4×10^3 cells per mouse suspended in trypto-soy broth with 4% mucin. Twice, about 5 minutes and 6 hours after infection. for 7 days. | The numerals in the table show ED50 (mg/kg). ED50 values were | calculated in accordance with the BehrensKaerber method (Arch. Exp. Path. | Pharm., 162, 480 (1931)). | po: oral administration.
# [2] = system: Pseudomonas aeruginosa No. 12; test: In vivo therapeutic efficacy against ascending kidney infection; design: species or system mice (Std:ddY-S); settings: NO.12, 120 h, female mice, po, twice a day for 3 days, kidneys on 5th day, probit analysis
# Method: Compounds 1 and A were tested by the following procedure for therapeutic efficacy against the ascending kidney infection with Pseudomonas aeruginosa No. 12 in mice. Female mice (Std:ddY-S) weighing 22 to 30 g were anesthetized by intravenous injection of sodium pentobarbital at a dose of 50 mg/kg. Through a small suprapubic incision, the urinary bladder was exposed and then infected by injecting 0.1 ml of a 1:10,000 dilution of Pseudomonas aeruginosa No. 12 cultured for 20 hours in trypto-soy broth, using a 0.25 ml syringe with a 0.25 mm needle. The mice were restrained from drinking water for a period from 1 day before to 1 day after the infection. The compound 1 or A was administered orally twice a day for 3 days starting on the day of infection. On the 5th day after infection, the kidneys were harvested for the detection of the bacteria, transversely bisected and stamped on King A agar, which were incubated at 37° C. overnight. No bacterial finding in the kidneys was regarded as protected from the ascending kidney infection. ED50 values were calculated by probit analysis.
# Escherichia coli P-5101 [3] = test: In vivo therapeutic efficacy against systemic infections in mice; design: species or system mice (ddY); settings: P5101, 168 h; systemic infection, Escherichia coli P-5101, male mice, po, twice (about 5 minutes and 6 hours after infection), 7 days, Behrens-Kaerber; read-out: median effective dose (ED50)
# Method: as §1, with “(1) Escherichia coli P-5101:” for “(2) Pseudomonas aeruginosa No. 12:”, “9×10^6” for “4×10^3”
# Shigella flexneri 2a = test: In vitro antibacterial activity (MIC), twofold agar-dilution method; type: cell-based; settings: read-out: minimum inhibitory concentration (MIC)
# Method: (§2) The minimum inhibitory concentrations (MIC: μg/ml) of the following compounds were measured by the twofold agar-dilution method according to the procedure described in Chemotherapy, Vol. 29, No. 1, page 76 (1981).
# Enterobacter cloacae 963 = test: as above; type: cell-based; settings: Enterobacter cloacae 963, twofold agar-dilution; read-out: minimum inhibitory concentration (MIC)
# Method: as §2
# [4] = system: Salmonella enteritidis No. 1891; test: as above; type: cell-based; settings: Salmonella enterica; Salmonella enteritidis No. 1891, twofold agar-dilution; read-out: minimum inhibitory concentration (MIC)
# Method: as §2
# [5] = system: Escherichia coli NIHJ JC-2; test: as above; type: cell-based; settings: NIHJJC2; Escherichia coli NIHJ JC-2, twofold agar-dilution; read-out: minimum inhibitory concentration (MIC)
# Method: as §2
# [6] = system: Proteus mirabilis IFO 3849-4; test: as above; type: cell-based; settings: IFO3849; Proteus mirabilis IFO 3849-4, twofold agar-dilution; read-out: minimum inhibitory concentration (MIC)
# Method: as §2
# [7] = system: Pseudomonas aeruginosa No. 12; test: as above; type: cell-based; settings: Pseudomonas aeruginosa No. 12, twofold agar-dilution; read-out: minimum inhibitory concentration (MIC)
# Method: as §2
# [8] = system: Klebsiella pneumoniae No. 13; test: as above; type: cell-based; settings: Klebsiella pneumoniae No. 13, twofold agar-dilution; read-out: minimum inhibitory concentration (MIC)
# Method: as §2
# Escherichia coli P-5101 [9] = test: as above; type: cell-based; settings: P5101; Escherichia coli P-5101, twofold agar-dilution; read-out: minimum inhibitory concentration (MIC)
# Method: as §2
# Proteus morganii Kono = test: as above; type: cell-based; settings: Morganella morganii, read-out: minimum inhibitory concentration (MIC)
# Method: as §2
# [10] = system: Serratia marcescens IFO 3736; test: as above; type: cell-based; settings: IFO3736; Serratia marcescens IFO 3736, twofold agar-dilution; read-out: minimum inhibitory concentration (MIC)
# Method: as §2
# [11] = system: Salmonella typhimurium S-9; test: as above; type: cell-based; settings: Salmonella enterica; Salmonella typhimurium S-9, twofold agar-dilution; read-out: minimum inhibitory concentration (MIC)
# Method: as §2
# [12] = system: Pseudomonas aeruginosa Tsuchiijima; test: as above; type: cell-based; settings: read-out: minimum inhibitory concentration (MIC)
# Method: as §2
# [13] = system: Pseudomonas aeruginosa No. 12; test: In vivo therapeutic efficacy against pulmonary infection in mice; design: species or system mice (ddY-S); settings: NO.12, 120 h, female mice, po, 0, 1 and 3 hours after infection, survival on 5th day, probit analysis
# Method: (§3) Female mice (ddY-S) weighing 18 to 26 g were intranasally intected with 4 drops of a bacterial suspension* in physiological saline. Drugs suspended in 0.2% sodium carboxymethyl cellulose were orally administered 0, 1, and 3 hours after infection. Survival rates were determined on the 5th day after infection. ED50 was calculated by probit analysis.
# *Pseudomonas aeruginosa No. 12--2.0×10^7 cells/mouse
# [14] = system: Pseudomonas aeruginosa No. 12; test: In vivo therapeutic efficacy against dermal infections; design: species or system mice (ddY-S); settings: NO.12, 96 h, dermal infection, female mice, po, 6 times (0, 3, 6, 24, 27, 30 hours), abscess on 4th day, probit analysis
# Method: Female mice (ddY-S) weighing 21 to 26 g were subcutaneously infected at the dorsal skin with approximate 9×10^6 viable cells of Pseudomonas aeruginosa No. 12 in 0.2 ml physiological saline. Medication was performed 6 times; 0, 3, 6, 24, 27, and 30 hours after infection. The appearance of skin abscess at the inoculated site was examined on the 4th day after infection and mice bearing no abscess were regarded as protected from the infection. ED50 was calculated by probit analysis.
# Gram-negative bacteria = test: In vivo antibacterial efficacy (Tables II to V), overall comparison; design: species or system mice; settings: compound 1 compared with compound A
# Excerpt: Compounds 1 and A were each suspended in a 0.2% aqueous solution of sodium carboxymethyl cellulose. Each of the solutions was orally administered to mice infected with each of the test organisms under the conditions described below, and the median effective doses (ED50) obtained are shown in Table II.
# as §3
# Female mice (Std:ddY-S) weighing 22 to 30 g were anesthetized by intravenous injection of sodium pentobarbital at a dose of 50 mg/kg. Through a small suprapubic incision, the urinary bladder was exposed and then infected by injecting 0.1 ml of a 1:10,000 dilution of Pseudomonas aeruginosa No. 12 cultured for 20 hours in trypto-soy broth, using a 0.25 ml syringe with a 0.25 mm needle. […] ED50 values were calculated by probit analysis.
# Female mice (ddY-S) weighing 21 to 26 g were subcutaneously infected at the dorsal skin with approximate 9×10^6 viable cells of Pseudomonas aeruginosa No. 12 in 0.2 ml physiological saline. […] ED50 was calculated by probit analysis.
# [15] = Acute oral toxicity in mice; settings: mouse, in vivo, male mice, deaths after 7 days, Behrens-Kaerber, read-out: median lethal dose (LD50)
# Method: A solution containing compound 1 in various concentrations was orally given to male mice (ddY-S) at a volume of 0.1 ml per 10 g of body weight. The number of dead mice was counted after 7 days, and the value of median lethal dose (LD50; mg/kg) was calculated in accordance with the Behrens-Kaerber method.
Structure (SMILES),ED50 [1] [mg/kg],ED50 [2] [mg/kg],ED50 (Escherichia coli P-5101 [3]) [mg/kg],MIC (Shigella flexneri 2a) [µg/mL],MIC (Enterobacter cloacae 963) [µg/mL],MIC [4] [µg/mL],MIC [5] [µg/mL],MIC [6] [µg/mL],MIC [7] [µg/mL],MIC [8] [µg/mL],MIC (Escherichia coli P-5101 [9]) [µg/mL],MIC (Proteus morganii Kono) [µg/mL],MIC [10] [µg/mL],MIC [11] [µg/mL],MIC [12] [µg/mL],ED50 [13] [mg/kg],ED50 [14] [mg/kg],in vivo antibacterial efficacy against Gram-negative bacteria (Gram-negative bacteria),LD50 at 168 h [15] [mg/kg]
"CCn1cc(C(=O)O)c(=O)c2cc(F)c(N3CCC(N)C3)nc21 (stereo not drawn) [A, 7-(3-Amino-1-pyrrolidinyl)-1-ethyl-6-fluoro-1,4-dihydro-4-oxo-1,8-naphthyridine-3-carboxylic acid, reference compound]",6.7,3,1.6,0.1,0.2,0.05,0.1,0.39,0.39,0.2,0.05,0.2,0.2,0.1,0.39,19.7,11.7,,
"C=Cn1cc(C(=O)O)c(=O)c2cc(F)c(N3CCC(N)C3)nc21 (stereo not drawn) [Compound 1, 7-(3-Amino-1-pyrrolidinyl)-6-fluoro-1,4-dihydro-4-oxo-1-vinyl-1,8-naphthyridine-3-carboxylic acid]",1.8,0.5,0.8,0.025,0.05,0.025,0.025,0.2,0.2,0.1,0.025,0.05,0.2,0.05,0.2,6.3,2.4,much better in vivo antibacterial efficacy against Gram-negative bacteria than the compound A,> 4000
